Assay results: patent publication US20160166560A1, “Urea Compounds and Their Use as FAAH Enzyme Inhibitors” (BIAL-PORTELA & Cª, S.A., priority 2013, published 2016)
Where a name gives a salt, the structure may show the parent alone.

Experiments:
FAAH [1] = biological target: T1, FAAH (Mus musculus, UniProt O08914); test: In vitro/ex vivo FAAH activity determination in liver after intra-tracheal instillation; design: Liver and brain fragments were removed and processed for enzymatic activity determination; from tissue; host or cells: mouse liver fragment homogenate; species or system male NMRI mice; settings: remaining enzymatic activity vs controls, 1 mg/kg intra-tracheal instillation, sacrificed after 8 h
T1 sequence (O08914 1-579): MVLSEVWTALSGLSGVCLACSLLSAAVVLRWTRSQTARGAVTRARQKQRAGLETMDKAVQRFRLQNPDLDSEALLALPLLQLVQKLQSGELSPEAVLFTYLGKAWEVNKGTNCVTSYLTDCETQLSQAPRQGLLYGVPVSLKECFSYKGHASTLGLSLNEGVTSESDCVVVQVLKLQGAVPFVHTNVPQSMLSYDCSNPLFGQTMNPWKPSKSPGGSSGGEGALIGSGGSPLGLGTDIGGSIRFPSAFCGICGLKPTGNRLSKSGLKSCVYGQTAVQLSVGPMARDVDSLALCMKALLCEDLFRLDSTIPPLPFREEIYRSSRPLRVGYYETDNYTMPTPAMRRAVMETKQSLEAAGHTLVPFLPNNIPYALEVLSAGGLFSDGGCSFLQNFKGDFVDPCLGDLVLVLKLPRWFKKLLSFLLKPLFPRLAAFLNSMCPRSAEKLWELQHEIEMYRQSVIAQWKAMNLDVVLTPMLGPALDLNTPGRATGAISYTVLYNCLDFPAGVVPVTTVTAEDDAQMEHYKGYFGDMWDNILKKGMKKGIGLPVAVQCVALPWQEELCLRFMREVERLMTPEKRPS
Procedure: (§1) To evaluate the selectivity of test compounds in inhibiting FAAH activity, male NMRI mice were administrated following instillation with 1 mg/kg compound and were sacrificed after 8 h treatment. Liver and brain fragments were removed and processed for enzymatic activity determination.
(§2) FAAH activity was measured as the amount of ^3H-ethanolamine formed, by liquid scintillation counting, from the hydrolysis of the substrate anandamide (AEA, labeled with ^3H on the ethanolamine part of the molecule). The percentage of remaining enzymatic activity was calculated in respect to controls and after blank subtraction. Therefore, a low value for the test compounds indicates a strong inhibitor.
(§3) Male NMRI mice (body weight range: 25-35 g) were obtained from Harlan Laboratories (Barcelona, Spain). Animals were kept 10 per cage, under controlled environmental conditions (12 hr light [8 am]/12 hr dark [8 pm]cycle; room temperature 22±1° C.). Food and tap water were allowed ad libitum. Animals were habituated to the animal facilities at least for a week prior to experiments. The experiments were all carried out during daylight hours.
(§4) Animals were fasted overnight before administration of compounds. […] After administration the animals were given atipamezole (1 mg/kg) to reverse the sedative and analgesic effects induced by the anaesthesia.
(§5) Fifteen minutes before sacrifice, animals were anesthetized with pentobarbital 60 mg/kg administrated intra-peritoneally. The brain (without cerebellum) and a fragment of liver were collected into plastic vials containing membrane buffer (3 mM MgCl2, 1 mM EDTA, 50 mM Tris HCl, pH 7.4). Glass beads (2.5 mm BioSpec Products, Bartlesville, Okla., USA) were added to the vials containing the brain and liver tissues. Tissues were stored at −20° C. until analysis.
(§6) Anandamide [ethanolamine-1-^3H-] was obtained from American Radiochemicals—with a specific activity of 60 Ci/mmol. All other reagents were obtained from Sigma-Aldrich. Optiphase Supermix was obtained from Perkin Elmer.
(§7) Brain and liver tissues were thawed and homogenized in 10 volumes of membrane buffer (3 mM MgCl2, 1 mM EDTA, 50 mM Tris HCl, pH 7.4) with homogenizer Precellys 24 Dual Tissue Homogenizer (Bertin Technologies) for 2 cycles of 5 sec (5000 rpm).
(§8) Total protein in the tissue homogenates was determined with the BioRad Protein Assay (BioRad) using a standard curve of BSA ([…]). Tissue homogenates were diluted to appropriate concentration for enzymatic determination in assay buffer (1 mM EDTA, 10 mM Tris HCl, pH 7.6).
(§9) Reaction mix (total volume 200 μL) contained 2 μM AEA (2 μM AEA+5 nM ^3H-AEA), 0.1% fatty acid free BSA, 15 μg (brain) or 5 μg (liver) protein, in assay buffer (1 mM EDTA, 10 mM Tris pH 7.6).
(§10) The test compound was used at a level of 1 mg/kg protein. After 15 minutes pre-incubation at 37° C. of the protein sample, reaction was started by the addition of the substrate solution (cold AEA+radiolabelled AEA+BSA). Reaction was carried out for 12 minutes for brain and liver tissues. Reaction was terminated by addition of 400 μL chloroform:methanol (1:1, v/v) solution. Reaction samples were vortex twice, left on ice for 5 minutes and then centrifuged in the microfuge for 7 minutes, 7000 rpm. 200 μL of the obtained supernatants were added to […] Optiphase Supermix scintillation cocktail previously distributed in 24-well plates.
(§11) Counts per minute (cpm) were determined in a Microbeta TriLux scintillation counter. In each assay blank samples (without protein) were prepared.

CYPs = CYPs metabolic stability assay in HLM (human liver microsomes); type: in vitro ADME; settings: HLM 1 mg/ml protein, compound 5 μM, 60 min, 37° C.; for Control (% remain): absence of NADPH; for CYP+ (% remain): with NADPH 1 mM
Procedure: Stability of the test compounds was performed in HLM (human liver microsomes) in the presence and in the absence of NADPH.
The stability was measured using the incubation mixture (100 μl total volume) contained 1 mg/ml total protein, MgCl2 5 mM and 50 mM K-phosphate buffer. Samples were incubated in the presence and in the absence of NADPH 1 mM. Reactions were pre-incubated 5 min and the reaction initiated with the compound under test (at a concentration of 5 μM). Samples were incubated for 60 min in a shaking water bath at 37° C. The reaction was stopped by adding 100 μl of acetonitrile. Samples were then centrifuged, filtered and supematant injected in HLPC-MSD. Test compounds were dissolved in DMSO and the final concentration of DMSO in the reaction was below 0.5% (v/v). At T0 acetonitrile was added before adding the compound. All experiments were performed with samples in duplicate.

FAAH [2] = biological target: T1, FAAH; test: In vitro/ex vivo FAAH activity determination in brain after intra-tracheal instillation; design: Liver and brain fragments were removed and processed for enzymatic activity determination; from tissue; species or system male NMRI mice; settings: remaining enzymatic activity vs controls, 1 mg/kg intra-tracheal instillation, sacrificed after 8 h
Procedure: as §1, §2, §3, §4, §5, §6, §7, §8, §9, §10, §11

| SMILES | FAAH Activity - Liver itc (% C) (FAAH [1]) | Control (% remain) (CYPs) | CYP+ (% remain) (CYPs) | FAAH Activity - Brain itc (% C) (FAAH [2]) | also measured |
| --- | --- | --- | --- | --- | --- |
| CN(C(=O)n1cnc(-c2cccc(NS(C)(=O)=O)c2)c1)C1CCN(Cc2ccccc2)CC1 [Example 1, N-(1-benzylpiperidin-4-yl)-N-methyl-4-(3-(methylsulfonamido)phenyl)-1H-imidazole-1-carboxamide hydrochloride] | 3.2 % C | 111.4 % remain | 30.2 % remain | 79.0 % C | – |
| CN(C(=O)n1cnc(-c2cccc(NS(N)(=O)=O)c2)c1)C1CCN(Cc2ccccc2)CC1 [Example 2, N-(1-benzylpiperidin-4-yl)-N-methyl-4-(3-(sulfamoylamino)phenyl)-1H-imidazole-1-carboxamide hydrochloride] | 5.1 % C | 98.3 % remain | 68.6 % remain | 86.8 % C | – |
| COc1cccc(CN2CCC(N(C)C(=O)n3cnc(-c4cccc(NS(C)(=O)=O)c4)c3)CC2)c1 [Example 4, N-(1-(3-methoxybenzyl)piperidin-4-yl)-N-methyl-4-(3-(methylsulfonamido)phenyl)-1H-imidazole-1-carboxamide hydrochloride] | 7.2 % C | 100 % remain | 11.2 % remain | 98.7 % C | – |
| COc1ccc(CN2CCC(N(C)C(=O)n3cnc(-c4cccc(NS(C)(=O)=O)c4)c3)CC2)cc1OC [Example 5, N-(1-(3,4-dimethoxybenzyl)piperidin-4-yl)-N-methyl-4-(3-(methylsulfonamido)phenyl)-1H-imidazole-1-carboxamide hydrochloride] | 5.7 % C | 100 % remain | 77.3 % remain | 104.7 % C | – |
| CN(C(=O)n1cnc(-c2cccc(OS(N)(=O)=O)c2)c1)C1CCN(c2ccccc2)CC1 [Example 6, 3-(1-(methyl(1-phenylpiperidin-4-yl)carbamoyl)-1H-imidazol-4-yl)phenyl sulfamate hydrochloride] | 1.7 % C | 88.7 % remain | 12.0 % remain | 82.1 % C | – |
| CN(C(=O)n1cnc(-c2cccc(OS(N)(=O)=O)c2)c1)C1CCN(Cc2ccccc2)CC1 [Example 7, 3-(1-((1-benzylpiperidin-4-yl)(methyl)carbamoyl)-1H-imidazol-4-yl)phenyl sulfamate hydrochloride] | 3.5 % C | 92.6 % remain | 65.0 % remain | 87.2 % C | – |
| COc1cc(CN2CCC(N(C)C(=O)n3cnc(-c4ccc(OS(N)(=O)=O)cc4)c3)CC2)cc(OC)c1 [Example 8, 4-(1-((1-(3,5-dimethoxybenzyl)piperidin-4-yl)(methyl)carbamoyl)-1H-imidazol-4-yl)phenyl sulfamate hydrochloride] | – | – | – | – | FAAH Activity - Liver itc (% C) (FAAH [1]; hydrochloride, 1 mg/kg): 5.4 % C; Control (% remain) (CYPs; hydrochloride): 93.2 % remain; CYP+ (% remain) (CYPs; hydrochloride): 25.2 % remain; FAAH Activity - Brain itc (% C) (FAAH [2]; hydrochloride, 1 mg/kg): 97.6 % C |
| COc1cccc(CN2CCC(N(C)C(=O)n3cnc(-c4cccc(C(N)=O)c4)c3)CC2)c1 [Example 13, 4-(3-carbamoylphenyl)-N-(1-(3-methoxybenzyl)piperidin-4-yl)-N-methyl-1H-imidazole-1-carboxamide hydrochloride] | – | 103.5 % remain | 25.1 % remain | – | – |
| COc1cc(CN2CCC(N(C)C(=O)n3cnc(-c4ccc(OS(N)(=O)=O)cc4)c3)CC2)cc(OC)c1 [Example 19, 4-(1-((1-(3,5-dimethoxybenzyl)piperidin-4-yl)(methyl)carbamoyl)-1H-imidazol-4-yl)phenyl sulfamate maleate] | – | – | – | – | FAAH Activity - Liver itc (% C) (FAAH [1]; maleate, 1 mg/kg): 9.2 % C; FAAH Activity - Brain itc (% C) (FAAH [2]; maleate, 1 mg/kg): 99.2 % C |
| COc1cccc(CN2CCC(N(C)C(=O)n3cnc(-c4cccc(NS(N)(=O)=O)c4)c3)CC2)c1.O=C(O)/C=C\C(=O)O.O=C(O)/C=C\C(=O)O [Example 20, N-(1-(3-methoxybenzyl)piperidin-4-yl)-N-methyl-4-(3-(sulfamoylamino)phenyl)-1H-imidazole-1-carboxamide dimaleate] | 15.8 % C | – | – | 86.4 % C | – |
| CN(C(=O)n1cnc(-c2cccc(NC(N)=O)c2)c1)C1CCN(Cc2ccccc2)CC1 [Example 22, N-(1-benzylpiperidin-4-yl)-N-methyl-4-(3-ureidophenyl)-1H-imidazole-1-carboxamide methanesulfonate] | – | – | – | – | FAAH Activity - Liver itc (% C) (FAAH [1]; methanesulfonate, 1 mg/kg): 10.7 % C; FAAH Activity - Brain itc (% C) (FAAH [2]; methanesulfonate, 1 mg/kg): 113.8 % C |
| CN(C(=O)n1cnc(-c2cccc(C(N)=O)c2)c1)C1CCN(Cc2ccccc2O)CC1 [Example 36, 4-(3-carbamoylphenyl)-N-(1-(2-hydroxybenzyl)piperidin-4-yl)-N-methyl-1 H-imidazole-1-carboxamide hydrochloride] | 8.6 % C | – | – | 94.4 % C | – |
| CN(C(=O)n1cnc(-c2cccc(C(N)=O)c2)c1)C1CCN(c2ccccc2O)CC1 [Example 37, 4-(3-carbamoylphenyl)-N-(1-(2-hydroxyphenyl)piperidin-4-yl)-N-methyl-1H-imidazole-1-carboxamide hydrochloride] | 3.4 % C | – | – | 110.2 % C | – |
| COc1ccccc1CN1CCC(N(C)C(=O)n2cnc(-c3cccc(C(N)=O)c3)c2)CC1 [Example 38, 4-(3-carbamoylphenyl)-N-(1-(2-methoxybenzyl)piperidin-4-yl)-N-methyl-1H-imidazole-1-carboxamide hydrochloride] | 6.0 % C | – | – | 96.5 % C | – |
